Tests used:
[1] = tested on: murine CD8+ T cells; assay: Murine CD8+ T-cell proliferation (CFSE), Example 6; format: cell-based, C57BL/6 mice
Experimental: Preparation of test materials: TTA, compound A and compound B were formulated in RPMI media under aseptic conditions. The pH was adjusted to approximately 7.5 before dosing cells.
Tissue culture and dosing: Splenocytes of C57BL/6 mice were stained with CFSE and prepared, cultured, and dosed. Cells were seeded at 1×10^5 cells/well in a 96-well round-bottomed plate.
Controls: Two controls were used. A negative control dosed with 10 ng/ml IL2 was used, and a positive control dosed with 20 μg/ml ConA and 10 ng/ml IL2 was used.
Treatment: After ConA stimulation (10 μg/ml), cells were dosed with 30 mM compound A, B or C with or without 0.1 mM 30:70 PS:DMPC liposomes. All wells were dosed with 10 ng/ml of IL-2.

[2] = tested on: Granzyme B and IFN-γ; assay: Dose-response of GranzymeB/IFN-γ double positivity in murine CD8+ T-cells, Example 9; format: cell-based, C57BL/6 mice; details: Mus musculus, T-cell
Experimental: A dose-response analysis of compounds B-E in murine CD8+ T-cells was conducted to evaluate the effect of dose on GranzymeB/IFN-γ double positivity.
Compound C, D and E were first dissolved in a small volume of DMSO before diluting to the final desired concentration.
Splenocytes from naïve C57BL/6 mice were stained with CFSE, prepared, cultured, and dosed. Cells were seeded at 2×10^5 cells/well. Negative control was dosed with 10 ng/ml IL-2. After ConA stimulation (10 μg/ml), cells were dosed with log 3 dilution of each compound from 3×10^−9 to 30 µM in triplicates. All wells were dosed with 10 ng/ml of IL-2.
Flow cytometer analysis was performed to assess percent CD8+ T-cells and percent activation by double staining for Granzyme B (GzmB) and IFN-γ as described in Example 7. Concentration versus response curve was fitted to a 4- or 5-parameter log-logistic model using the “dre” package in “R”. Both EC50 and EC90 were obtained by model fitting.

[3] = tested on: T-cells isolated from spleens; assay: FoxP3/KLRG-1/CTLA4 in T-cells isolated from spleens of compound D-treated animals; format: in vivo; details: 2.5 mg IV daily for seven days
Experimental: Animals were treated with 2.5 mg of compound D IV daily for seven days. Upon completion of the treatment period, T-cells isolated from spleens of the animals were analyzed by flow cytometry.

[4] = tested on: PD-1; assay: Percent PD-1+ T-cells in spleens, single dose on Day 7 (Examples 17, 19, 20); format: in vivo, C57BL6 mice; details: E 0.1, 0.25, 1 mg IV or 2.5 mg PO, F 0.03-1 mg IV or 1 mg PO, G 0.1, 0.4, 1 mg IV or 1 mg PO
Experimental: (§1) Melanoma B16F10 cells were injected IV into C57BL6 mice on Day 0. On Day 7, mice were administered a single dose of 0.1 mg, 0.25 mg, or 1 mg of Compound E IV or 2.5 mg Compound E PO. One group was left untreated. Three mice at each time point were sacrificed, and their spleens were extracted. Percent KLRG1+ and PD-1^+ T-cells were quantified. Briefly, single-cell suspensions prepared from the extracted spleens were prepared and stained for KLRG1, PD-1 and CD8, and analyzed by flow cytometry.
(§2) Melanoma B16F10 cells were injected IV into C57BL6 mice on Day 0. On Day 7, mice were administered a single dose of 0.03 mg, 0.1 mg, 0.3 mg or 1 mg Compound F IV or 1 mg Compound F PO. One group was left untreated. Three mice at each time point were sacrificed, and their spleens were extracted. Percent KLRG1+ and PD-1^+ T-cells were quantified. Briefly, single-cell suspensions prepared from the extracted spleens were prepared and stained for KLRG1, PD-1 and CD8, and analyzed by flow cytometry.
(§3) Melanoma B16F10 cells were injected IV into C57BL6 mice on Day 0. On Day 7, mice were administered a single dose of 0.1 mg, 0.4 mg, or 1 mg Compound G IV or 1 mg Compound G PO. One group was left untreated. Three mice at each time point were sacrificed, and their spleens were extracted. Percent KLRG1+ and PD-1^+ T-cells were quantified. Briefly, single-cell suspensions prepared from the extracted spleens were prepared and stained for KLRG1, PD-1 and CD8, and analyzed by flow cytometry.

[5] = tested on: KLRG1; assay: Percent KLRG1+ T-cells in spleens, single dose on Day 7 (Examples 17, 19, 20); format: in vivo, C57BL6 mice; details: for activity after oral administration (KLRG1+, PD1+ T-cells): single PO dose: E 2.5 mg, F 1 mg, G 1 mg; for percent KLRG1+ T-cells compared to untreated animals: single dose, E 0.1, 0.25, 1 mg IV or 2.5 mg PO, F 0.03-1 mg IV or 1 mg PO, G 0.1, 0.4, 1 mg IV or 1 mg PO
Experimental: as §1, §2, §3

[6] = tested on: PD-1 and TIM3; assay: PD-1 and TIM3 expression on PS-treated human CD8+ T-cells (flow cytometry); format: cell-based
Excerpt: (§4) 30:70 PS:DMPC liposomes were synthesized in PBS.

[7] = tested on: human CD8+ T cells; assay: Survival of PS-treated human CD8+ T-cells (viability dye, microscopy)
Experimental: (§14) CD8+ T-cells were stained with CFSE (ThermoFisher Catalog No. 50-169-50), and prepared, cultured, and dosed as described herein. Briefly, cells were seeded at 4×10^5 cells/well. IL-2 (10 ng/ml) was used as a negative control, and ConA (20 μg/ml) in conjunction with IL-2 (10 ng/ml) was used as a positive control. After ConA stimulation (10 μg/ml) in the presence of 10 ng/ml IL-2, cells were dosed in duplicate with PS:DMPC liposomes to give a total of 100, 10, 1, or 0.1 mM of PS. […] Flow cytometer analysis was performed to assess cell survival by viability dye and proliferation by CFSE (gated on survived CD8+ T-cells).
(§15) Cells were observed via a microscope at the end of the incubation period.

[8] = tested on: TNF-α; assay: TNF-α ELISA in RAW 264.7 cells; format: cell-based, mouse; details: 0.0001-100 mM, human FVIII antigen
Experimental: (§5) RAW 264.7 cells were prepared, cultured, and dosed as described herein. The RAW 264.7 cell line is an immortalized mouse monocyte macrophage that is very close to primary cells, easy to maintain with minimum manipulation, and known to express TIM4. […] OPLS and TTA were dosed at 100, 70, 50, 30, 10, 3, 1, 0.3, 0.1, 0.03, 0.01, 0.003, 0.001, 0.0003 and 0.0001 mM. Finally, 100 μl of 40 μg/ml of human FVIII as a sample antigen was added to each well. LPS and free protein were used as positive and baseline controls, respectively. OPLS and TTA were formulated in RPMI media in aseptic conditions. The pH was adjusted to approximately 7.5 before dosing cells. TNF-α and TGF-β ELISAs were conducted as per the manufacturer's instructions (TNF-α ELISA kit: R&D systems DY410; TGF-β ELISA kit: R&D systems DY1679).

[9] = tested on: human CD8+ T cells; assay: Proliferation of PS-treated human CD8+ T-cells (CFSE); format: cell-based; details: 70 mM L-(+)-tartaric acid with 0.1 mM PS
Excerpt: as §4

[10] = tested on: TGF-β; assay: TGF-β ELISA in RAW 264.7 cells; format: cell-based, mouse; details: 0.0001-100 mM, human FVIII antigen
Experimental: as §5

[11] = tested on: murine CD8+ T-cells; assay: Murine CD8+ T-cell proliferation concentration-response (CFSE), Example 7; format: cell-based, C57BL/6 mice
Excerpt: (§6) In this study, the effects of increasing doses of compound B and compound C on proliferation (CFSE staining), activation (Granzyme B and IFN-γ), and checkpoint modulation (PD1 and TIM3) of murine CD8+ T-cells in the presence and absence of phosphatidylserine (PS) were explored.
(§7) Preparation of test materials: 30:70 PS:DMPC liposomes were synthesized in PBS. […] Compound C was first dissolved in a small volume of DMSO before diluting to the final desired concentration.
(§8) Tissue culture and dosing: Splenocytes of C57BL/6 mice were stained with CFSE and prepared, cultured, and dosed. Cells were seeded at 4×10^5 cells/well.
(§9) Controls: Two controls were used. A negative control dosed with 10 ng/ml IL-2 was used, and a positive control dosed with 20 μg/ml ConA and 10 ng/ml IL-2 was used.
(§10) Treatment: After ConA stimulation (10 μg/ml), cells were dosed with log 3 dilution of compound B or compound C to cover a range from 1×10^−3 to 30 mM in duplicates with or without 0.1 mM PS:DMPC liposomes. All wells were dosed with 10 ng/ml of IL-2.
(§11) Flow cytometer: Flow cytometer analysis was performed to assess cell proliferation by CFSE, activation by double staining for Granzyme B (GzmB) and IFN-γ, checkpoint modulation by double staining for PD-1 and TIM3.
(§12) Exposure-response analysis: Change from baseline was calculated for each marker as follows:
(§13) Concentration versus change was fitted to an appropriate three-, four- or five-parameter log-logistic model using “dre” package in “R.”
The fold change from baseline of CD8+ T-cells proliferation as a function of increasing doses of compound B was calculated using equation 1, where ResponseControl was the proliferation of cells treated with IL-2 alone and Responsetreatment was the proliferation at each dose of compound B. The baseline PS response was calculated using the same equation where Responsetreatment was the proliferation of cells treated with 0.1 mM PS.

[12] = tested on: TIM3 and PD-1; assay: TIM3+/PD-1+ double-positive murine CD8+ T-cells, Example 7; format: cell-based, C57BL/6 mice; details: controls: high dose ConA; 0.1 mM PS liposomes
Excerpt: as §6, §7, §8, §9, §10, §11, §12, §13
The fold change from baseline of TIM3+/PD-1+ double-positive CD8+ T-cells as a function of increasing doses of compound B was calculated using equation 1, where Responsecontrol was TIM3+/PD-1+ double-positive CD8+ T-cells in cells treated with IL-2 alone and Responsetreatment was TIM3+/PD-1+ double-positive CD8+ T-cells at each dose of compound B. The baseline PS response was calculated using the same equation with Responsetreatment as the TIM3+/PD-1+ double-positive CD8+ T-cells treated with 0.1 mM PS.

[13] = tested on: Granzyme B and IFN-γ; assay: GzmB+/IFN-γ+ double-positive murine CD8+ T-cells, Example 7; format: cell-based, C57BL/6 mice; details: controls: high dose ConA; 0.1 mM PS liposomes
Excerpt: as §6, §7, §8, §9, §10, §11, §12, §13
The fold change from baseline GzmB+/IFN-γ+ double-positive CD8+ T-cells as a function of increasing doses of compound B was calculated using equation 1, where Responsecontrol was GzmB+/IFN-γ+ double-positive CD8+ T-cells in cells treated with IL-2 alone and Responsetreatment was GzmB+/IFN-γ+ double-positive CD8+ T-cells at each dose of compound B. The baseline PS response was calculated using the same equation with Responsetreatment as the GzmB+/IFN-γ+ double-positive CD8+ T-cells treated with 0.1 mM PS.

[14] = tested on: human CD8+ T cells
Experimental: as §14, §15

[15] = 30 mM, in absence of PS, ConA 10 μg/ml
[16] = 70 mM L-(+)-tartaric acid with 0.1 mM PS

O=C(O)[C@H](O)[C@@H](O)C(=O)OCc1ccccc1 [A, (2R,3R)-4-(benzyloxy)-2,3-dihydroxy-4-oxobutanoic acid]
percent of CD8+ T-cell proliferation [1, 15]: 64.4%

O=C(O)[C@H](O)[C@@H](O)C(=O)OCCC1c2ccccc2-c2ccccc21 [Compound D, (2R,3R)-4-(2-(9H-fluoren-9-yl)ethoxy)-2,3-dihydroxy-4-oxobutanoic acid]
EC50 ([2]; 4-parameter model): 4.1 nM | EC90 ([2]; 4-parameter model): 50 nM | EC50 ([2]; 5-parameter model): 3.5 nM | EC90 ([2]; 5-parameter model): 39 nM | Emax ([2]; FIG. 4, 5-parameter fit, read-out: maximal response (GzmB/IFN-γ double positive CD8+ T-cells)): 40% | CTA4+/CD8+ T-cells [3]: 0.27% | FoxP3+ CD4+ T-cells [3]: 5.42% | KLRG-1+/CD8+ T-cells [3]: 5.11% | reduction in CTA4+/CD8+ T-cells [3]: 27% | reduction in FoxP3+ CD4+ T-cells compared to control animals [3]: 58% | reduction in KLRG-1+/CD8+ T-cells [3]: 80%

O=C(O)[C@H](O)[C@@H](O)C(=O)NCCn1c2ccccc2c2ccccc21 [Compound F, (2R,3R)-4-((2-(9H-carbazol-9-yl)ethyl)amino)-2,3-dihydroxy-4-oxobutanoic acid]
percent PD1+ T-cells compared to untreated animals [4]: dose-dependent reduction | activity after oral administration (KLRG1+, PD1+ T-cells) [5]: effective after oral administration | percent KLRG1+ T-cells compared to untreated animals [5]: dose-dependent reduction

O=C(O)[C@H](O)[C@@H](O)C(=O)NCCCc1ccccc1 [Compound G, (2R,3R)-2,3-dihydroxy-4-oxo-4-((3-phenylpropyl)amino)butanoic acid]
percent PD1+ T-cells compared to untreated animals [4]: dose-dependent reduction | activity after oral administration (KLRG1+, PD1+ T-cells) [5]: effective after oral administration | percent KLRG1+ T-cells compared to untreated animals [5]: dose-dependent reduction

O=C(O)[C@H](O)[C@@H](O)C(=O)O [L-(+)-tartaric acid]
percent of CD8+ T-cell proliferation [1, 15]: 41.74% | PD-1 expression [6, 16]: 23% | TIM3 expression [6, 16]: 0.527% | decrease of TIM3 expression compared to PS only group [6, 16]: about 66% | frequency of cells co-expressing PD-1 and TIM3 [6, 16]: 0.198% | reduction of PD-1 expression compared to PS only-treated group [6, 16]: about 35% | reduction of cells co-expressing PD-1 and TIM3 compared to PS only [6, 16]: 91.4% | increase in viable CD8+ T cells compared to PS-treated cells alone [7, 16]: 65% | TNF-α production [8]: stimulate TNF-α production | effect on PS-suppressed CD8+ T-cell proliferation/accumulation (CFSE) [9]: partially reversed the effect of PS | TGF-β production [10]: without stimulating TGF-β production

phosphatidylserine [PS, reference compound]
fold increase in CD8+ T-cell proliferation compared to control cells ([11]; 0.1 mM PS): 28 fold | percent proliferation of CD8+ T-cells ([11]; controls: high dose ConA 20 μg/ml, 0.1 mM PS liposomes): 4.24% | fold increase in TIM3+/PD-1+ double-positive CD8+ T-cells vs negative control [12]: 1.27 fold | percent of CD8+ T-cell proliferation ([1]; controls: ConA 20 μg/ml + IL2, 0.1 mM PS): 4.84% | GzmB+/IFN-γ+ double-positive CD8+ T-cells relative to negative control [13]: one half | PD-1 expression ([6]; 0.1 mM PS only): 35% | TIM3 expression ([6]; 0.1 mM PS only): 1.53% | frequency of cells co-expressing PD-1 and TIM3 ([6]; 0.1 mM PS only): 2.31% | microscopic observation of cells [14]: did not look healthy | CD8+ T-cell survival ([7]; controls: ConA 20 μg/ml + IL-2, 0.1 mM PS after ConA stimulation): 25.9%

From US20250177340A1, “Tartaric Acid Analogs and Uses Thereof” (Lapix Therapeutics, Inc., priority 2021, published 2025)
